Results: patent US20260117184A1, “SYSTEM AND METHOD TO DIRECT THE DIFFERENTIATION OF PLURIPOTENT STEM CELL-DERIVED ODONTOBLASTS” (UNIVERSITY OF WASHINGTON, priority 2022, published 2026)

Test system: hiPSC derived odontoblast cells (iOB)
Assay: qPCR of odontoblast markers (Example 2)
Type: cell-based, human
Settings: iOB bFGF (100 ng/mL, 14 days) compared to conventional odontoblast differentiation method (OB)
Description: This project applies the DPSC derived to odontoblast protocol previously described by the lab (30), modified for hiPSC and to reflect the full signaling pathway activities as detected by the sci-RNA-seq analysis (FIG. 11A; FIGS. 15B and 15C). […] Odontogenic medium was supplemented with 50 ng/mL BMP4 (Stemcell Technologies 78211) for 7 days followed by 25 ng/mL BMP4 (Stemcell Technologies 78211) and 400 nM SAG (Stemcell Technologies 73412) for 7 days (iOB); 100 ng/mL C6 (1,2) for 14 days (iOB C6); 100 ng/mL C6 for 7 days followed by 100 ng/mL mb7 (31,32) for 7 days (iOB C6 to mb7); or 100 ng/mL recombinant basic FGF (Gibco 13256-029) for 14 days (iOB bFGF). […]
To analyze gene expression, cells were dissociated and lysed with Trizol (Life Technology) with cell pellets stored at −80° C. RNA purification is performed via TURBO DNA-Free™ Kit (Invitrogen) or Aurum™ Total RNA Mini Kit (Bio-Rad), purity and concentration quantification via Nanodrop ND-1000 (Thermo Fisher Scientific). cDNA synthesis via iScript™ cDNA Synthesis Kit (Bio-Rad) or Applied Biosystems™ High-Capacity cDNA Reverse Transcription Kit (Thermo Fisher Scientific), and qPCR performed using oligonucleotide primers for neural crest and odontoblast markers (Table 3), SYBR Green reporter (Applied Biosystems) and 7300 Real-Time PCR System (Applied Biosystems). […]

For “bFGF: recombinant basic FGF (Gibco 13256-029)”, the “DSPP and DMP1 expression” value was “increased DSPP and DMP1 expression”.
